{
  "source": "paper PMC8197214",
  "about": "“8a, a New Acridine Antiproliferative and Pro-Apoptotic Agent Targeting HDAC1/DNMT1” (International Journal of Molecular Sciences, 2021)",
  "biological_target": "DNMT1 (Homo sapiens, UniProt P26358)",
  "sequence (P26358 whole entry)": "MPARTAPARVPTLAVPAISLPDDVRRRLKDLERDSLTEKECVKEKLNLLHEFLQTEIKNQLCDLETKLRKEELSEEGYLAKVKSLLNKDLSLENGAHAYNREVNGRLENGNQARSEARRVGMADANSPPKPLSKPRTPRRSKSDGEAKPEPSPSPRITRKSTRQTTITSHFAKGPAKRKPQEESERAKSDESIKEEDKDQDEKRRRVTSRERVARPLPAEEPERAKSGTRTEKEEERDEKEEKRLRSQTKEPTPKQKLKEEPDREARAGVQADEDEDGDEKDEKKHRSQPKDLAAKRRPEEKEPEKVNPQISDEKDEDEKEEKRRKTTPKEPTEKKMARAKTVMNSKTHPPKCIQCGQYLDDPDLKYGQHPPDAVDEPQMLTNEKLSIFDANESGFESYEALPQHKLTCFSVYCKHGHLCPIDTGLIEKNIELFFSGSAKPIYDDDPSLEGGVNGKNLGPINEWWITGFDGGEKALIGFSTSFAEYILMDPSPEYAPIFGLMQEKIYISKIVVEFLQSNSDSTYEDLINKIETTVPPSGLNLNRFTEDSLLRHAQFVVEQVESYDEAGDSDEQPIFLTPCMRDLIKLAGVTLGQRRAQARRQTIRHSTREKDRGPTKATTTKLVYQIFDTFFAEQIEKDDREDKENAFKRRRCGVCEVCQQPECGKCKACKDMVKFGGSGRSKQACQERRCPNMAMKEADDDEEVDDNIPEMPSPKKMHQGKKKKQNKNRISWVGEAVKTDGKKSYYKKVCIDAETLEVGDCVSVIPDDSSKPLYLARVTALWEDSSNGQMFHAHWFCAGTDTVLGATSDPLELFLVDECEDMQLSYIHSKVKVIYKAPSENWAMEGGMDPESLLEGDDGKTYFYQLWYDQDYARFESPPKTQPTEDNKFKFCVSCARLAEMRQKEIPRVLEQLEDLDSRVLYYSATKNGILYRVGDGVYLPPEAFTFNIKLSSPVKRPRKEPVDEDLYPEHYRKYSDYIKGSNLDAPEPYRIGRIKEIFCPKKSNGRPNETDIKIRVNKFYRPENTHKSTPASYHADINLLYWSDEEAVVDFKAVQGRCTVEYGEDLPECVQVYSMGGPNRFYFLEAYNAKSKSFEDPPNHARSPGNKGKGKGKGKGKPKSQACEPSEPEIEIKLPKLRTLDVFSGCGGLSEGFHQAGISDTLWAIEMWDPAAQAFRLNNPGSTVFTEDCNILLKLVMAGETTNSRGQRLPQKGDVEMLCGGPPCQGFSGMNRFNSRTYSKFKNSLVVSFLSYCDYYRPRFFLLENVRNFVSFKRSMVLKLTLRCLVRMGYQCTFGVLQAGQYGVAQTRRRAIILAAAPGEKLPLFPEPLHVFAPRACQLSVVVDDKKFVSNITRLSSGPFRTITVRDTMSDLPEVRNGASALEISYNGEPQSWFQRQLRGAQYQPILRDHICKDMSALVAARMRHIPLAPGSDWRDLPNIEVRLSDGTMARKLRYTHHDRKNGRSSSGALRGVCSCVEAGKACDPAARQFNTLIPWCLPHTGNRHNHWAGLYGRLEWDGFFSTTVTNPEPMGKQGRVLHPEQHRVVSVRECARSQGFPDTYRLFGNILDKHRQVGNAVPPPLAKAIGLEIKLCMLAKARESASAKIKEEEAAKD",
  "experiment": "biolayer interferometry (Octet K2), His-tagged DNMT1 on NTA biosensor",
  "format": "binding",
  "data": [
    {"compound": "Cc1cccc2c(NCc3ccc(C(=O)Nc4ccccc4N)cc3)c3ccccc3nc12", "note": "[8a, N-(2-aminophenyl)-4-(((4-methylacridin-9-yl)amino)methyl) benzamide]", "values": [
      {"measurement": "Kd", "value": 1.9, "unit": "nM"}
    ]}
  ]
}
